Data set [1] concerns Panc-1 cells. Nature of the data set: Confocal fluorescence imaging of FITC labeled peptides in cells. Type of data set: cell-based. The settings on record: confocal microscope, 10 μM FITC labeled peptides, Panc-1 cells. The method, then: (§1) To examine whether PRTC could permeate into pancreatic cancer cells, we synthesized fluorescein isothiocyanate (FITC) labeled PRTC, PRTC-m, PRTC-v, PRTC-r (PRTC without RRRRK) as well as TAT (a widely used cell penetrating peptide, as a positive control).
(§2) Figure 3 Identification of the permeability of PRTC in Panc-1 cells. (A) Entry of FITC- labeled peptides into Panc-1 cells tested by flow cytometry. FITC-TAT is the positive control. Measurements were performed in triplicate. (B) Quantification of cellular uptake of Panc-1 cells treated with different concentrations of FITC-PRTC. (C) Confocal microscope images of Panc-1 cells treated with 10 μM FITC labeled peptides. Scale bars, 10 μm. (D) Confocal microscope images of Panc-1 cells treated with different dosages of FITC-PRTC. Scale bars, 10 μm.

The next data set has as its system Myc-CREPT and Myc-CCT. Nature of the data set: Exogenous IP experiment in HEK293T cells. Type of data set: binding. As to conditions: GST-tagged CREPT ligand. The protocol:
(§3) For exogenous immunoprecipitation assays, HEK293T cells were plated in 60 mm dishes and then transfected with the indicated plasmids. After 24 h, cells were harvested using RIPA buffer (50 mM Tris-HCl pH 8.0, 2 mM EDTA pH 8.0, 150 mM NaCl, 1% NP-40, 0.5% sodium deoxycholate, 0.1% SDS) with mixed protease inhibitors. Cell lysates were incubated with 2 μg of the indicated antibodies and 30 μL of protein A/G-Sepharose beads at 4 °C overnight. Beads were eluted five times with lysis buffer (50 mM Tris-HCl pH 7.6, 1 mM EDTA pH 8.0, 165 mM NaCl, 0.5% NP-40), and thereafter, a western blot assay was performed to analyze the association by using the indicated antibodies. Western blot was performed as previously reported. Anti-β-actin and anti-Flag antibodies were purchased from Sigma. Anti-Myc antibody was purchased from Santa Cruz Biotechnology. Antibody against CREPT was produced in the laboratory.

A further data set has as its target T1, Flag-CREPT (Homo sapiens, UniProt Q9NQG5).
T1 construct: expressed in transfected cells; host or cells: HEK293T
T1 sequence (Q9NQG5 1-326): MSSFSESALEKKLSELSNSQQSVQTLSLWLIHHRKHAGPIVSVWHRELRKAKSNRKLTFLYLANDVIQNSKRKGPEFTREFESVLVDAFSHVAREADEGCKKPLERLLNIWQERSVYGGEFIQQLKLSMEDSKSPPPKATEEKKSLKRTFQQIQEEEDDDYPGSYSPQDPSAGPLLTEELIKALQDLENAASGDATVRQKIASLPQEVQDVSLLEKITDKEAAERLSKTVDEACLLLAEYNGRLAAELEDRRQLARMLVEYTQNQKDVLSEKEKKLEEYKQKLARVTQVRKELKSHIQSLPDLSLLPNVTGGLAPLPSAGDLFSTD
Nature of the data set: GST pull-down. Type of data set: binding. As to conditions: GST-tagged proteins purified from mammalian (HEK293T) cells. The protocol:
HEK293T cells were plated in 100 mm dishes and then transfected with the indicated plasmids. After 24 h, cells were harvested using RIPA buffer with mixed protease inhibitors. Cell lysates were incubated with 30 μL of GST-tagged Sepharose beads and 10 μg of purified proteins from either E. coli or HEK293T cells at 4 °C overnight. Beads were eluted five times with lysis buffer. Western blot was performed using an antibody against GST (Cell Signaling Technology) to analyze the association.

Data set [2] concerns Panc-1 cells. As to the kind of experiment: Flow cytometry, entry of FITC-labeled peptides into cells. The settings on record: flow cytometry, FITC-labeled peptides, 10 μM, Panc-1 cells, triplicate; in comparison with PRTC, PRTC-m or PRTC-v. It is filed as cell-based. The protocol: as §1, §2
On the technique in general: Flow cytometry measures light scatter and fluorescence of single cells or particles in a stream.

The target of data set [3] is T2, endogenous CREPT protein in Panc-1 cells (Homo sapiens, UniProt Q9NQG5).
T2 construct: endogenous protein level of CREPT in Panc-1, AsPc-1 and MIA-PaCa-2 cells; endogenous in cells; host or cells: Panc-1, AsPc-1, MIA PaCa-2
T2 sequence (Q9NQG5 1-326): T1 sequence (Q9NQG5 1-326)
As to the kind of experiment: Western blot of endogenous CREPT (degradation). Type of data set: cell-based. The settings on record: 24 h incubation with 10 μM PRTC. The protocol:
as §3
To address whether PRTC could induce CREPT degradation, we examined the endogenous protein level of CREPT in Panc-1, AsPc-1 and MIA-PaCa-2 cells in the presence of different dosages of PRTC. […] Consistently, treatment with PRTC led to decreases in CREPT protein at different times (Figure 5B, S3A). […] To further visualize the degradation process, we stained the endogenous CREPT protein with an antibody against CREPT in the cells treated with FITC-labeled PRTC.
Figure 5 PRTC induces the ubiquitination and proteasome- dependent degradation of the endogenous CREPT protein. (A) Immunoblot of CREPT following 24 h incubation with different dosages of PRTC or PRTC-m in Panc-1 cells. (B) Immunoblot of CREPT exposed to 10 μM PRTC or PRTC-m for different times in Panc-1 cells. (C) Western blot analysis of CREPT following 24 h incubation with 10 μM PTRC in Panc-1 cells. MG132 is an inhibitor of proteasome activity. (D) Immunofluorescence visualization of Panc-1 cells after treatment with PRTC for 24 h. Cells were stained with anti-CREPT antibody. Scale bars, 20 μm.
(In general: Immunoblotting shows a protein as a band on a membrane.)

This note sets out measurements from article PMC7069095, “A cell-permeable peptide-based PROTAC against the oncoprotein CREPT proficiently inhibits pancreatic cancer” (Theranostics, 2020).

Residues, ends and D or L forms follow the SMILES beside them. No end group written: not given here. *: point of attachment. Cbz = O=C(OCc1ccccc1)*

As for “FITC-AHX-KDVLSEKEKKLEEYKQKLARV-RRRRK [FITC-PRTC-v, FITC labeled PRTC-v]”, the “localization of FITC labeled peptides in the cells” value in the data set on Panc-1 cells [1] is given as “strong localization”. For the compound “GST-CL-m: GST protein tagged with CL-m (KDVPSEKEKKPEEYKQKPARV; also: GST tag, end not given here)”, in the data set with Myc-CREPT and Myc-CCT, the “binding in exogenous IP” value was “failed to bind”. Besides, in the data set with Flag-CREPT, the “pull down of Flag-CREPT in vitro” value is listed as “lost the ability to associate”. Turning to “IYP (OH) AL-AHX-KDVLSEKEKKLEEYKQKLARV [PRTC-r, PRTC without RRRRK]”, the “fluorescence intensity in the cells (cell entry)” value in the data set on Panc-1 cells [2] is “obviously decreased”.

On to `CC(C)C[C@@H](C=O)NC(=O)[C@H](CC(C)C)NC(=O)[C@H](CC(C)C)NC(=O)OCc1ccccc1` [MG132, reference compound] (Cbz-Leu-Leu-Leu-aldehyde), for which the “effect on PRTC-induced CREPT degradation” value in data set [3] is recorded as “completely abolished”. As for “GST-CL: GST protein tagged with CREPT ligand (CL) (KDVLSEKEKKLEEYKQKLARV; also: GST tag, end not given here)”, the “binding in exogenous IP” value in the data set with Myc-CREPT and Myc-CCT is reported as “strongly binds”. Besides, the “pull down of Flag-CREPT in vitro” value with Flag-CREPT is reported as “able to pull down”.
